According to patent US7585859B2, “PDE4B inhibitors and uses therefor” (Plexxikon, Inc., priority 2004, dated 2009):

How the values were obtained:
[1] = biological target: T1, PDE4B: The catalytic domain of human PDE4B from S152-S528 (Homo sapiens, UniProt Q07343); assay: PDE4 IC50 determination by Scintillation Proximity Assay, PDE4B; format: biochemical; details: Table 1B, Formula I compounds; read-out: IC50 PDE4B
T1 construct: His6 (N); thrombin cleavage site (N); made in house; host or cells: E. coli
Summary of the method: (§1)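 Radiometric SPA: PDE4B (80 ng/ml) or PDE4D (4 ng/ml) hydrolysed [^3H]cAMP over 30 min at 30°, and the bead-bound [^3H]AMP was scintillation-counted.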

[2] = test system: TNF alpha production in LPS-stimulated human blood (Buffy coat); assay: TNF alpha production by stimulation with LPS in whole blood cultures; format: cell-based; details: Homo sapiens; Table 1B, Formula I compounds; read-out: IC50 h TNFα
Protocol: Compounds were assayed to generate IC50 numbers as described in Example 54, using the following assay protocol (see Tables 3B and 4B for compounds and results).
Protocol • 1) Obtained 20 mM DMSO aliquots of desired concentrations of compounds (see Tables 3B and 4B for compounds tested and results). Placed 2 μl/well compound in DMSO in the top row of the dilution plate. Added 98 μl of RPMI 1640 media w/2.5% heat inactivated FBS.
2) Made the same media with 2% DMSO in it. Added 60 μl/well to well to make compound titration. Took 30 μl of top row and did a 1:3 dilution down the plate. In column 11 added 4 wells of 50 μM roflumilast and piclamilast. In column 12 added 2% DMSO media.
3) Transfered 20 μl/well into assay plates in duplicate.
4) Obtained human Buffy coat.
5) Diluted blood with 7 volumes of RPMI 1640 media with 1% P/S and 2.5% heat inactivated FBS (a 1:8 dilution)
6) Added160 μl/well of diluted blood to the assay plates.
7) Incubated for 1 hour at 37 degrees 5% CO2
8) Diluted LPS (which was already diluted to 1 mg/ml in PBS, 20 μl aliquots frozen −20 C.) to 10× desired final concentration to make a […] dilution (final concentration should be 100 ng/ml).
9) After 1 hour incubation added 20 μl/well of LPS to plates. A non-LPS treated background was also prepared. Samples were put on the shaker for a one minute 900 rpm.
10) Incubated for 4 hours in incubator.
11) After incubation, put on the shaker for a one minute 900 rpm and spun plate at 100 g for 10 minutes, Decel 5.
12) Carefully pipetted the top 75 μl supernatant into a new plate. Samples were frozen as needed.
Biosource hu-TNF ALPHA ELISA
• REAGENTS USED • DPBS 10×: VWR45000-428 (dilute 1:10 with Millipore Water) • TWEEN 20: FISHER BP337-500 • CAPTURE AND DETECTION ANTIBODIES: R&D DY510E • STREP-HRP: Biosource part SNN4004X • COLOR REAGENTS: R&D DY994 • STOP SOLUTION: from chemistry, or R&D DY999 • 1) Thawed samples to RT as needed. • 2) Added 50 μl Incubation buffer/well. • 3) Added 50 μl blood samples +50 μl Diluent buffer • 4) Incubated 2 hours at room temp. • 5) Washed the plate 4× with 300 μl/well wash buffer with microfill. Wash buffer was DPBS with 0.05% Tween pH 7.2-7.4 • 6) Added 100 μl biotinylated anti-TNFalpha • 7) Incubateed 1 hours at room temp. • 8) Washed the plate 4× with 300 μl/well wash buffer with microfill. Wash buffer was DPBS with 0.05% Tween pH 7.2-7.4 • 9) Added^100 μl Streptavidin-HRP working solution • 10) Incubated for 30 minutes at room temp. • 11) Washed the plate 4× with 300 μl/well wash buffer with microfill. Wash buffer was DPBS with 0.05% Tween pH 7.2-7.4 • 12) Added 100 μl Chromagen • 13) Incubated in the dark for 30 minutes until the blue color developed satisfactorily. • 14) Added 100 μl/well stop solution (2 N H2SO4). • 15) Read plate on WallacVictor at 450 nm for 0.1 sec/well

[3] = biological target: T2, PDE4D (Homo sapiens, UniProt Q08499); assay: PDE4 IC50 determination by Scintillation Proximity Assay, PDE4D; format: biochemical; details: Table 1B, Formula I compounds; read-out: IC50 PDE4D
T2 construct: PDE4D: The catalytic domain of human PDE4B from S3 16-V692; His6 (N); thrombin cleavage site (N); made in house; host or cells: E. coli
Summary of the method: as §1

[4] = biological target: T3, full-length human PDE4B2 isozyme (Homo sapiens, UniProt Q07343); assay: PDE4 IC50 determination by Scintillation Proximity Assay, PDE4B2; format: biochemical; details: Table 1B, Formula I compounds; read-out: IC50 PDE4B2
T3 construct: The full-length human PDE4B2 isozyme; His6 (N); TEV cleavage site (N); made in house; host or cells: baculovirus infected insect cells (unpurified lysate)
Summary of the method: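 Unpurified His6-TEV-tagged full-length human PDE4B2 from baculovirus-infected insect cell lysate (2.5 μl of 50% glycerol stock/ml) hydrolysed [3H]cAMP in 50 mM Tris pH 7.5, 8.3 mM MgCl, 1.7 mM EGTA, 0.01% BSA for 30 min at 30°. Stopped with SPA beads in 18 mM ZnSO4; [3H]AMP scintillation counted, IC50 by non-linear regression.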

[5] = biological target: T4, full-length human PDE4D5 isozyme (Homo sapiens, UniProt Q08499); assay: PDE4 IC50 determination by Scintillation Proximity Assay, PDE4D5; format: biochemical; details: Table 1B, Formula I compounds; read-out: IC50 PDE4D5
T4 construct: The full-length human PDE4D5 isozyme; His6 (N); TEV cleavage site (N); made in house; host or cells: baculovirus infected insect cells (unpurified lysate)
Summary of the method: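 Unpurified His6-tagged full-length human PDE4D5 from baculovirus-infected insect cell lysate, 0.083 μl glycerol stock/ml, hydrolysed [3H]cAMP in Tris pH 7.5/MgCl/EGTA buffer, 30 min at 30°. ZnSO4/SPA beads stop; [3H]AMP counted. Controls: DMSO and roflumilast; 11-point duplicate curves, nonlinear-regression IC50.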

Measured: IC50

T2 sequence (Q08499 380-756): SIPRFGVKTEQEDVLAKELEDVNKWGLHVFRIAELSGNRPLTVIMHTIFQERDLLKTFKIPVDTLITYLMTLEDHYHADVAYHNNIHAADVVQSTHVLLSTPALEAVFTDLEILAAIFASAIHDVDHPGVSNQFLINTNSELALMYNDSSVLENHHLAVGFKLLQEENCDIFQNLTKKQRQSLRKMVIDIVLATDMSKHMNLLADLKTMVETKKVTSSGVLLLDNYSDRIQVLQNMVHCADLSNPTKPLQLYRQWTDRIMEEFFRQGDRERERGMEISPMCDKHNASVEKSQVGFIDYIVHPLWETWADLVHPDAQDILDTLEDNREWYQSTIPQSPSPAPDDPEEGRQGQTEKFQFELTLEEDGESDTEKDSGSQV
T4 sequence (Q08499 1-745 isoform Q08499-6): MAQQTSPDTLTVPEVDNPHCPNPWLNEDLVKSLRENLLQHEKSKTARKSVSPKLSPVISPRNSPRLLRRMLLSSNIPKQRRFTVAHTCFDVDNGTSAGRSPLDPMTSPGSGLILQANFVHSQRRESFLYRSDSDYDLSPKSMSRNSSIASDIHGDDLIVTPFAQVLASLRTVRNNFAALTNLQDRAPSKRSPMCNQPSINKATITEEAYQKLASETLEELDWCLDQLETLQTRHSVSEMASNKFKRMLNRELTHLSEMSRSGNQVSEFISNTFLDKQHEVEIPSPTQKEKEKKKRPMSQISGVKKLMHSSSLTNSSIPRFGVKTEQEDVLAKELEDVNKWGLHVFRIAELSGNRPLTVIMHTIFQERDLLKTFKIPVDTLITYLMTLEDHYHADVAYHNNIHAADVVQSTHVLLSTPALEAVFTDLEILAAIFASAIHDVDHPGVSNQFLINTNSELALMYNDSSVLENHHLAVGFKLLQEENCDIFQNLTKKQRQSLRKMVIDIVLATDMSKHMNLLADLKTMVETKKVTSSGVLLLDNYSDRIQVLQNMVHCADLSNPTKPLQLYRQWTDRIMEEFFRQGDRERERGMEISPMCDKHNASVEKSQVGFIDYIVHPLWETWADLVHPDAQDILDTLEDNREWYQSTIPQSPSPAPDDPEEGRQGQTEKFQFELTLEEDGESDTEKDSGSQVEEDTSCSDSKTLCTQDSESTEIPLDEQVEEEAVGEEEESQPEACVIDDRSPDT
T1 sequence (Q07343 with tags, fused parts or gaps): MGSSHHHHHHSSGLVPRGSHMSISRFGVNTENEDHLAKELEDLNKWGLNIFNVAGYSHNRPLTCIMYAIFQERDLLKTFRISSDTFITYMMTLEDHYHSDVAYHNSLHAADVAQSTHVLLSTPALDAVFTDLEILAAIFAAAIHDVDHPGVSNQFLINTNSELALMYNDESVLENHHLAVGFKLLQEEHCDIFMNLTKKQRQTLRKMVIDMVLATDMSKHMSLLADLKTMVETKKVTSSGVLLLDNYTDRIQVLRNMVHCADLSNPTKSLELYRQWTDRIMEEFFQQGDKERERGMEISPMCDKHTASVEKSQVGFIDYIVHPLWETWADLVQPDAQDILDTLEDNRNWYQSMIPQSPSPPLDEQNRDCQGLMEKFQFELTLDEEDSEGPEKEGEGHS
T3 sequence (Q07343 1-564 isoform Q07343-2): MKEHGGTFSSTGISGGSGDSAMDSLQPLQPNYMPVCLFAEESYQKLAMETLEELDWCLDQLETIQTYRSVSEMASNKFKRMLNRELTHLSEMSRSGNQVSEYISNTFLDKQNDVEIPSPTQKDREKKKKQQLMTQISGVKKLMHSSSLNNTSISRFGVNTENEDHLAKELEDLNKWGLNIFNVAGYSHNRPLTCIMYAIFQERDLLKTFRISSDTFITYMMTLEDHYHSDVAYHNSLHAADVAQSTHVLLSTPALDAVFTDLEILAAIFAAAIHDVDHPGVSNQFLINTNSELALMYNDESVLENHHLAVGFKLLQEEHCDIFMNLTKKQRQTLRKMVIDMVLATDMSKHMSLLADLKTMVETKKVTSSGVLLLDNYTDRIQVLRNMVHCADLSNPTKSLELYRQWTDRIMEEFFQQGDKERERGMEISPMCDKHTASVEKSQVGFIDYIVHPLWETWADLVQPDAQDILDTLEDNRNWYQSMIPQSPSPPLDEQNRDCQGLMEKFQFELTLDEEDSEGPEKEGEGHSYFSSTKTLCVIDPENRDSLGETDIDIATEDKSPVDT

CC(C)CNc1sc(C(=O)c2cc(-c3ccc(N)cc3)no2)c(N)c1C(N)=O [Compound 1-254, 4-Amino-5-[3-(4-amino-phenyl)-isoxazole-5-carbonyl]-2-isobutylamino-thiophene-3-carboxylic acid amide]
< 10 µM: all assays above
